Where two headings read alike, the source gives them in different places. Each block holds one compound with its values, some of them ahead of it.
Assays:
streptavidin = streptavidin (Streptomyces avidinii, UniProt P22629); settings: cited from earlier work
Avidin = Avidin (Gallus gallus, UniProt P02701); settings: cited from earlier work
Murine galectin 3 = Murine galectin 3 (Mus musculus, UniProt P16110); settings: Gaussian fit of 10 pN bins
galectin 3 = galectin 3 (Mus musculus, UniProt P16110); assay: isothermal titration calorimetry of soluble ligand binding to galectin 3; parameters: species or system Murine
galectin 3, sequence (P16110 whole entry): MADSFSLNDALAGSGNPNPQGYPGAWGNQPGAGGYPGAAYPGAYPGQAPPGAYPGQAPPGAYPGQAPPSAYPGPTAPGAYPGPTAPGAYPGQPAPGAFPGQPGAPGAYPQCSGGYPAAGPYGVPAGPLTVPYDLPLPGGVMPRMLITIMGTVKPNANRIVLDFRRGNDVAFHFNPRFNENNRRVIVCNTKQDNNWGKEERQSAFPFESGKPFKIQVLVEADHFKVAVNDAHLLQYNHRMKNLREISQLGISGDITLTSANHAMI

Murine galectin 3, sequence (P16110 whole entry): as above
Avidin, sequence (P02701 25-152): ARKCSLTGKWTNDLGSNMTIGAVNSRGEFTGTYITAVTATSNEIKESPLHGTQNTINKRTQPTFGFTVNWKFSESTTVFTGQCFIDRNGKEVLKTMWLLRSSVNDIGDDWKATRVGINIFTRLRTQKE

SMILES: O=C(O)CCCC[C@@H]1SC[C@@H]2NC(=O)N[C@@H]21 [biotin, Biotin]
Ka (streptavidin): ~10^14 M^−1
Ka (Avidin): 10^13-10^15 M^−1

average rupture force (Murine galectin 3; Fe^3+ surface immobilization of galectin 3): 71 pN
average rupture force (Murine galectin 3; Ni^2+ surface immobilization of galectin 3): 72 pN
SMILES: OC[C@H]1O[C@@H](O[C@H]2[C@H](O)[C@@H](O)C(O)O[C@@H]2CO)[C@H](O)[C@@H](O)[C@H]1O (some centres unmarked) [lactose]

SMILES: CO[C@@H]1O[C@H](CO)[C@@H](O[C@@H]2O[C@H](CO)[C@H](O)[C@H](O)[C@H]2O)[C@H](O)[C@H]1O [β-methyl lactoside]
association constant, the affinity measured by isothermal titration calorimetry (galectin 3): 6400±100

— patent US7598092B2, “Methods, devices, systems and computer program products for stochastic, competitive, force-based analyte detection” (priority 2006, dated 2009)
